Laboratory results taken from patent publication EP1656933A1, “A medicinal composition comprising L-alanine for non-alcoholic fatty liver disease and/or non-alcoholic steatohepatitis and use therof” (Ajinomoto Co., Inc., priority 2004, dated 2006).

Experiments:
[1] = parameters: species or system Male GK rats; details: rat, in vivo
Excerpt: It has been supposed that the increase of the amount of fat intake in the last few decades is one of the causes of the recent increase of the number of patients with NASH. Therefore, the effect of L-alanine on the hepatic triglyceride contents in the high-fat diet (hereinafter HFD)-induced fatty liver rat model. Male GK rats (9 weeks of age, 6 rats per group) received HFD (containing 30% beef tallow) for 6 weeks.

[2] = system: HFD-induced fatty liver rat model; assay: High-fat diet (HFD)-induced fatty liver rat model, hepatic triglyceride contents; assay type: in vivo, Male GK rats; details: diet mixed with 4% L-alanine for 6 weeks; one rat of 6, in the level of SD group
Method: It has been supposed that the increase of the amount of fat intake in the last few decades is one of the causes of the recent increase of the number of patients with NASH. Therefore, the effect of L-alanine on the hepatic triglyceride contents in the high-fat diet (hereinafter HFD)-induced fatty liver rat model. Male GK rats (9 weeks of age, 6 rats per group) received HFD (containing 30% beef tallow) for 6 weeks. Triglyceride contents in the liver tissue was increased to 29.1 to 49.3 mg per gram of liver tissue, compared with those (14.1 to 24.2 mg) in the group fed with standard diet (containing 5% soy-been oil; hereinafter SD). Pioglitazone is a drug, which acts as an insulin-sensitizer for the patients with diabetes. Recent clinical pilot studies raise the possibility of clinical utility of pioglitazone for NASH. […] On the other hand, in the group of 6 rats received […] mixed with 4% L-alanine for 6 weeks, one rat is reduced in the liver triglyceride contents (19.6 mg) in the level of SD group. In addition, weight gain was reported as the main side effect in a pilot clinical study of piogritazone for NASH.

[3] = system: choline-deficient diet (hereinafter CDD) rat model; assay: Choline-deficient diet (CDD) rat model showing NASH-like pathological change in the liver; assay type: in vivo, Male Wistar rats
Excerpt: Male Wistar rats (7 weeks of age, 5 rats per group) received CDD (Dyets Co.) for 4 weeks. […] On the other hand, in the group of 5 rats received CDD mixed with 4% L-alanine for 4 weeks, one rat is normalized in liver weight (10.6g).

Row | SMILES | Body Weight (g) Post (at 6 weeks) [1] | Body Weight (g) Pre [1] | liver triglyceride contents [2] | liver weight ([3]; CDD mixed with 4% L-alanine for 4 weeks, one rat of 5 (normalized), CDD alone 14.5 to 20.0 g) | macrovesicular hepatic steatosis / histological fat accumulation in the liver ([3]; CDD mixed with drug for 4 weeks, histological examination, UDCA all of 5 rats, L-alanine the one rat of 5 with normalized liver weight)
1 | C[C@H](N)C(=O)O [L-alanine] | 331.8 ± 20.5 g | 219.8 ± 13.0 g | 19.6 mg | 10.6 g | not recognized
2 | CCc1ccc(CCOc2ccc(CC3SC(=O)NC3=O)cc2)nc1 (stereo not drawn) [pioglitazone, reference compound] |  | 222.1 ± 9.9 g |  |  | 
